Laboratory results reported in EP4413991A1, “PEPTIDE FOR COGNITIVE IMPROVEMENT” (Consejo Superior De Investigaciones Científicas, priority 2023, dated 2024).

Legend:
Format in all cases: in vivo, C57BL/6 mice
[1] = tested on: old mice (~20 months); assay: Novel object recognition test (NOR), memory index; settings: single intrahippocampal injection, versus vehicle; for recognition memory at short term: 2 hours after training trial; for recognition memory at long-term: 5 days after training trial
Procedure: (§1) Different experimental group of old mice (~20 months of age) were randomly injected on the hilus region of both brain hemispheres with vehicle (PBS or destillated water) or with one of four different molecules: Vitamin B12 (50 mg/ml; Vet one, ref: 510218), S-(5'-Adenosyl)-L-methionine chloride (0,25 mg/ml; Sigma, ref: A7007), folic acid (0,25 mg/ml; Sigma, ref: F7876-10G) or synthetic FRa binding peptide, peptide having amino acid sequence SEQ ID NO: 1, (2,5 mg/ml and 5 mg/ml, diluted in PBS; Abyntec). The pH of Vitamin B12, methionine or folic acid were adjusted to ~7 to avoid negative effects due to overly acidic medium. One week after intracerebral injections, mice were assessed with behavioural (open field trial) and memory tests (novel object recognition) to study potential functional effects of different metabolites on central nervous system. Two weeks after surgeries mice were finally perfused just after finalized Y maze test performing.
(§2) After anesthesia with isofluorane, mice were secured in a stereotaxic frame (Kopf). Holes were drilled bilaterally in the skull at the injection sites (one per hemisphere) by microdrill with 0.5 mm drill bit. Stereotaxic coordinates used for intrahippocampal injections were as follows (from bregma): anterior-posterior 2.2, lateral 1.4, dorsoventral 2.0. A 33-gauge needle Hamilton syringe coupled to a syring pump controller mounted to the stereotaxic frame was used to inject 2µl of vehicle or metabolites at each site. Injections occurred at a rate of 0.25 µl/min, after which the needle was left in place for an additional 3 min, stopping another 3 minute in the halfway. After injections were completed, the skin was sutured and the animals were allowed to recover for 1 h on a heating pad before returning to the home cage. Mice remained in the home cage for an additional 1 week before the start of behavioral testing, being sacrificed 2 weeks after surgery.
Both open field (OF) and novel object recognition (NOR) tests were performed as described previously (Rodríguez-Matellán A, et al., In Vivo Reprogramming Ameliorates Aging Features in Dentate Gyrus Cells and Improves Memory in Mice. Stem Cell Reports. 2020 Nov 10;15(5):1056-1066. ). Locomotor activity as well as anxiety and depression-like behaviours in old mice were evaluated using OF. This test was used as habituation of NOR test. In brief, on the first day, the mice were placed individually for 10 min in a 45x45-cm plastic box with vertical opaque walls. Each session was recorded and different data like distance, speed, immobile time and time on center square of the box were analysed with Anymaze software. On the second day, mice were placed in the same box for 5 min, allowing them to explore two identical objects: A and B (two black rooks). Both objects were placed on the long axis of the cage, each 13 cm from the cage end. After each exposure, the objects and the cage were wiped with 70% ethanol to eliminate odors which potentially could condition successive mice behaviour. Two hours after the familiarization trial, each mouse was released into the box with the same object previously used (object A) and a new one (object C, a tower of coloured plastic pieces), instead of the object B (short-term memory test). The position of object C was the same as that of object B in the familiarization trial. The mice were given 5 min to explore the box. Five days later, the mice were released again into the box, with object A in the same position and another new object (object D, a falcon tube filled with wood chips) in the same position of the object C in the previous test. Again, animals were allowed 5 min to explore the box (Long-term memory test). Animals were considered to show recognition when their head was <2 cm from the object.
The memory index (Ml) was used to measure recognition memory performance. […]

[2] = tested on: 5-methycytosine (5mC); assay: DNA methylation immunofluorescence in hippocampal neurons; settings: versus vehicle
Procedure: as §1
as §2, with “After injections were completed, the skin was sutured and the animals were allowed to recover for 1 h on a heating pad before returning to the home cage. Mice remained in the home cage for an additional 1 week before the start of behavioral testing, being sacrificed 2 weeks after surgery.” left out
(§3) For 5mC, H3K9me3 and H4K20me3 antibodies, acquisition confocal settings (laser intensity, gain, pinhole) were kept constant for all images, which were captured in the same confocal session. […] The area above the threshold was then measured in Fiji and the mean fluorescence in the ROI was calculated and compared between vehicle and folate experimental groups.

[3] = tested on: GluN2B; assay: GluN2B immunoreactivity in molecular layer of dentate gyrus; settings: single intrahippocampal injection, versus vehicle
Procedure: as §1
(§4) After anesthesia with isofluorane, mice were secured in a stereotaxic frame (Kopf). Holes were drilled bilaterally in the skull at the injection sites (one per hemisphere) by microdrill with 0.5 mm drill bit. […]
For GluN2B antibodies, the quantification was carried out with the imaged program by measuring the percentage of area occupied by the receptor immunoreactivity in the molecular layer of dentate gyrus. […]

[4] = tested on: neuronal precursors cells; assay: Adult neurogenesis markers in dentate gyrus, immunofluorescence cell density; settings: subgranular zone; unique dose hippocampal injection; versus vehicle
Procedure: as §1, §2
Mice received three injections each 2 hours (200 ul/injection, in alternative sides of body) of 5-Chloro-2'-deoxy-Uridine (CldU, Sigma reference C6891; i.p. 42.75 mg/Kg bw) one week after cranial surgery and microinjections of solutions. In this way we were able to follow the effects of treatment in the proliferation of new cells at the subgranular zone, essential zone for neurogenesis process. […]
(§5) Quantifications for density of DCX/Blbp/CIdU-immunoreactive positive cells were performed by counting in four different consecutive medial brain sections the number of cells localized in each whole DG (distinguishing between SGZ and GCL) and the adjacent hilus region. For perineuronal nets of extracellular matrix, positive units labelled with WFA were counted in the dentate gyrus (including granular cell layer and hilus) from three different consecutive medial brain sections. […]

[5] = tested on: old mice (~20 months); assay: Y maze test for spatial memory; settings: percentage of time in novel arm; single intrahippocampal injection; two weeks after surgery; versus vehicle
Procedure: as §1, with “performing. […]” for “performing.”
To assess spatial memory, an Y maze test based on published protocols with modifications (Kraeuter AK, et al. The Y-Maze for Assessment of Spatial Working and Reference Memory in Mice. Methods Mol Biol. 2019;1916:105-111. ) was performed. […] The number of entries into and the time spent in each arm, were registered from video recordings and analysed by AnyMaze software. […]

[6] = tested on: H4K20me3; assay: Histone methylation immunofluorescence in dentate gyrus; settings: 14 days since injection, versus vehicle
Procedure: as §1
(§6) After anesthesia with isofluorane, mice were secured in a stereotaxic frame (Kopf). […]
as §3

[7] = tested on: H3K9me3; assay: as above; settings: 14 days since injection, versus vehicle
Procedure: as §1, §6, §3

[8] = tested on: old mice (~20 months); assay: Open field test (OF); settings: single bilateral intrahippocampal (hilus) injection, 2µl per site; tested one week after surgery; versus vehicle
Procedure: as §1, §2
Both open field (OF) and novel object recognition (NOR) tests were performed as described previously (Rodríguez-Matellán A, et al., In Vivo Reprogramming Ameliorates Aging Features in Dentate Gyrus Cells and Improves Memory in Mice. Stem Cell Reports. 2020 Nov 10;15(5):1056-1066. ). Locomotor activity as well as anxiety and depression-like behaviours in old mice were evaluated using OF. This test was used as habituation of NOR test. In brief, on the first day, the mice were placed individually for 10 min in a 45x45-cm plastic box with vertical opaque walls. Each session was recorded and different data like distance, speed, immobile time and time on center square of the box were analysed with Anymaze software. On the second day, mice were placed in the same box for 5 min, allowing them to explore two identical objects: A and B (two black rooks). […]

[9] = tested on: 5-hydroxymethylcytosine (5hmc); assay: DNA hydroxymethylation in hippocampal neuronal layers; settings: versus vehicle
Procedure: as §1
as §4, with “bit. Stereotaxic coordinates used for intrahippocampal injections were as follows (from bregma): anterior-posterior 2.2, lateral 1.4, dorsoventral 2.0.” for “bit.”

[10] = tested on: perineuronal nets (PNN); assay: Perineuronal nets (PNN) density labeled with WFA in dentate gyrus; settings: single intrahippocampal injection, versus vehicle-injected aged mice
Procedure: as §1, with “Two weeks after surgeries mice were finally perfused just after finalized Y maze test performing.” left out
as §5

[11] = tested on: Dnmt1; assay: Western blot of Dnmt1 in hippocampal extracts; settings: western blot densitometry; versus vehicle
Procedure: as §1, §6
Mice were anesthetized with an intraperitoneal pentobarbital injection (Dolethal, 60 mg/kg body weight) and transcardially perfused with saline. […] Serial parasagittal sections ([…] thick) were cryoprotected in 30% sucrose solution in PB and stored in ethylene glycol/glycerol at […] until they were analyzed. […]

[12] = tested on: Sox2; assay: Sox2 expression in dentate gyrus, immunoreactivity; settings: different regions of dentate gyrus (hilus, GCL, SGZ); unique-dose injection in aged mice; versus vehicle
Procedure: as §1
as §4, with “bit. Stereotaxic coordinates used for intrahippocampal injections were as follows (from bregma): anterior-posterior 2.2, lateral 1.4, dorsoventral 2.0.” for “bit.”

Nc1nc2ncc(CNc3ccc(C(=O)N[C@@H](CCC(=O)O)C(=O)O)cc3)nc2c(=O)[nH]1 [folate, folic acid]
recognition memory at short term [1]: not significant differences
recognition memory at long-term [1]: improves
level of 5mC, mean intensity ([2]; granular neuronal layer of dentate gyrus (P=0.0132)): significant changes
level of 5mC, mean intensity ([2]; pyramidal layer of CA1 (P-value=0.06)): important tendency
level of 5mC, mean intensity ([2]; pyramidal layer of CA3 (P-value=0.05)): important tendency
expression of GluN2B immunoreactivity (percentage of area occupied) [3]: increase
doublecortin-ir cell density [4]: neither found differences
early neuronal precursor like blbp-ir cells density [4]: subtle but non-significant tendency of increase
new born CIdU-ir cells density [4]: subtle but non-significant tendency of increase
one-week-old neurons (double Dcx/CldU-ir cells) density [4]: subtle but non-significant tendency of increase
spatial memory [5]: improvement
level of methylation at H4K20me3 [6]: does not modify
level of methylation at H3K9me3 [7]: does not modify
anxiety-depression like behavior (central square time) [8]: improvement
locomotor activity (distance travelled, speed and immobile time) [8]: improvement
level of 5hmc [9]: not significant changes
PNN density labeled with WFA [10]: significant reduction
expression of Dnmt1 hippocampal levels [11]: increased

CTVRTSAEC (source 1..9: organism (original language) = constructo sintetico) [FRa binding peptide]
recognition memory at short term [1]: Not significant differences
recognition memory at long-term [1]: significant improvement
expression of GluN2B immunoreactivity (percentage of area occupied) [3]: increase
SOX2 expression [12]: significant increase
PNN density labeled with WFA [10]: reducing the density

Vitamin B12
recognition memory at short term [1]: not revealed significant differences
recognition memory at long-term [1]: not revealed significant differences
spatial memory [5]: not revealed significant differences
anxiety-depression like behavior (central square time) [8]: not revealed any alteration
locomotor activity (distance travelled, speed and immobile time) [8]: not revealed any alteration
